{"source": "patent EP4556005A1", "about": "“COMPOUND FOR TREATING FLAVIVIRUS INFECTIONS” (Leibniz-Institut für Virologie, priority 2023, dated 2025)", "key": {"[1]": {"test": "Cytotoxicity, cell viability by Resazurin assay", "type": "cell-based", "settings": "human, JEG-3 human placental cells; naive JEG-3 cells, 24-well plates (8×10^4 cells/well), increasing amounts of inhibitor, viability read forty-height (48) hours later; Figure 3A; read-out: 50% cytotoxicity concentration (CC50)", "experimental": "In a first experiment, the cytotoxicity of the UBA5 inhibitor DKM29-3 was determined. Naive JEG-3 human placental cells were seeded in 24-well plates (8×10^4 cells/well) and on the next day treated with increasing amounts of the UBA5 inhibitor DKM29-3."}, "ZIKV (PRVABC59 strain)": {"system": "ZIKV (PRVABC59 strain)", "test": "Zika virus replication in infected JEG-3 cells, plaque-forming unit assay (PFU) on VeroE6 cells", "type": "cell-based", "settings": "wild-type JEG-3 cells, MOI 0.01, 16 µM or 32 µM added after virus absorption, supernatants analysed forty-height (48) hours later; n=4; Mann-Whitney test p-value < 0.05", "experimental": "Then, the effect of UBA5-inhibitor DKM29-3 on Zika virus replication was studied. Wild-type JEG-3 cells were seeded as described above and infected with ZIKV (PRVABC59 strain) at an MOI (Multiplicity of Infection) of 0.01 for 1h at 37°C. After virus absorption the cells monolayers were washed with PBS (Phosphate Buffer Saline), and cell culture media containing 16 µM or 32 µM of DKM29-3 were added to the cells. Forty-height hours later virus-containing supernatants were analyzed by plaque-forming unit assay (PFU) on VeroE6 cells (n=4; Mann-Whitney test p-value < 0.05)."}}, "data": [{"molecule": "COc1ccc(CNC(=O)CCl)cc1OC", "note": "[DKM29-3, 2-chloro-N-(3,4-dimethoxybenzyl)acetamide]", "values": [{"measurement": "CC50 at 48 h", "setting": "[1]", "result": 80.2, "unit": "µM"}, {"measurement": "Zika virus replication", "setting": "ZIKV (PRVABC59 strain)", "result": "significantly reduced"}]}]}
